# Legend:
# [1] = ActiveTox suite of toxicity assays (LDH release, proliferation, ATP content, caspase 3/7, cyp1A induction, P-glycoprotein inhibition, cyp3A induction via PXR or GR); assay type: cell-based; details: 10 and 100 μM, quadruplicate
# Protocol: Compounds were analyzed in eight separate assays at concentrations of 10 and 100 μM in quadruplicate. Compounds were assayed tar toxicity via LDH release, inhibition of proliferation, ATP content, caspase 3/7 activation. Compounds were assayed for induction of cyp1A and P-glycoprotein inhibition. Compounds were also assayed for cyp3A induction under conditions which favor activation via the pregnane receptor (PXR) or the glucorticord receptor (GR). Appropriate positive and negative controls were included in each case.
# [2] = system: 3T3 cell line; experiment: Cell proliferation assay (CellTiter 96 AQueous One) as indicator of toxicity, 3T3; assay type: cell-based; details: 3T3, 100 μM
# Protocol: (§1) A simple cell proliferation assay was used to determine the in vitro cytotoxicity of “compound 1.” Selected cell lines were cultured according to their specific requirements. The optimal cell density required for each cell line was determined. All compounds were tested at a single concentration in triplicate. Cell viability was determined using the CellTiter 96® AQueous One reagent from Promega Corporation.
# (§2) Assays are performed by adding the test compound to the cells in culture and incubating the cells for a fixed period. The number of viable cells remaining after the incubation period is determined by adding a small amount of the CellTiter 96® AQueous One Solution Reagent directly to culture wells, incubating for 1-4 hours and then recording absorbance at 490 nm with a 96 well plate reader.
# (§3) Controls in the assay include untreated cells, wells without cells and cells treated with know cytotoxic agents. Data is presented as % inhibition of cell proliferation.
# [3] = system: MCF—7 cell line; experiment: Cell proliferation assay (CellTiter 96 AQueous One) as indicator of toxicity, MCF-7; assay type: cell-based; details: MCF—7, 100 μM
# Protocol: as §1, §2, §3
# [4] = in vitro; details: human, Caco-2
# Protocol: The Caco-2 assay was performed according to the procedure described in the following cited article [Caco-2 Monolayers in Experimental and Theoretical Predictions of Drug Transport, Artursson P, Palm K, Luthman K., Adv. Drug Deliv. Rev., 2001, 46, 27-43].
# [5] = target: T1, SSTR-2 (Homo sapiens, UniProt P30874); experiment: Radioligand binding screen against somatostatin subtype SSTR-2
# T1 construct: expressed in transfected cells
# T1 sequence (P30874 whole entry): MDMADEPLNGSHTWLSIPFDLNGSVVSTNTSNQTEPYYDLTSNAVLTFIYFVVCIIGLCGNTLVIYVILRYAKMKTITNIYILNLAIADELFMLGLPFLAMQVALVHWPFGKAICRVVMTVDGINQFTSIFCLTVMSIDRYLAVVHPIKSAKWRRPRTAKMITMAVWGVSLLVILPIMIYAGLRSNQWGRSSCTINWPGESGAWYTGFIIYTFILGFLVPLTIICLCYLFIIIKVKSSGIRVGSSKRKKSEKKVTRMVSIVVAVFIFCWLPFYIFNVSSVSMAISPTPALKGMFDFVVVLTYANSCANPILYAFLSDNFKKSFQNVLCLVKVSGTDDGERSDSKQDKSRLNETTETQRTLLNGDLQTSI
# Protocol: (§4) Receptor membrane preparations containing the desired cloned receptor (for example cloned human somatostatin receptor subtype 5, SSTR5) and radio-labeled ligand (for example 3-[^125I]iodotyrosyl^11 Somatostatin-14)) were diluted at the concentration required for testing and according to the specific parameters associated with the selected receptor-ligand combination, including receptor Bmax, ligand Kd and any other parameters necessary to optimize the experimental conditions. When tested for competition activity to the reference ligand, “compound 1” was mixed with membrane suspension and the radiolabeled reference ligand (with or without an excess of cold ligand to the receptor for determination of non-specific binding) and incubated at the temperature required by internal standard operating procedures. Following incubation, the binding reaction was stopped by the addition of ice-cold washing buffer and filtered on appropriate filters, which are then counted. Data analysis and curve-fitting was performed with XLfit (IDBS).
# (§5) 10 mM solutions of test compounds in 100% DMSO were prepared. ˜160 μl was used for each dilution (20 μl/well in triplicate).
# (§6) A 1.25 mM assay stock was prepared by making a 1:8 dilution of the 10 mM solution. (To 30 μL of the 10 mM solution was added 210 μL milli-Q H2O. A 1:5 dilution series in milli-Q H2O was then prepared.
# (§7) In primary screening experiments compounds were tested in duplicate for a particular concentration.
# [6] = target: T2, SSTR-4 (Homo sapiens, UniProt P31391); experiment: Radioligand binding screen against somatostatin subtype SSTR-4 (SST4 assay); details: concentration required to displace 50% of the competitive radioligand; read-out: IC50 SSTR4
# T2 construct: expressed in transfected cells
# T2 sequence (P31391 whole entry): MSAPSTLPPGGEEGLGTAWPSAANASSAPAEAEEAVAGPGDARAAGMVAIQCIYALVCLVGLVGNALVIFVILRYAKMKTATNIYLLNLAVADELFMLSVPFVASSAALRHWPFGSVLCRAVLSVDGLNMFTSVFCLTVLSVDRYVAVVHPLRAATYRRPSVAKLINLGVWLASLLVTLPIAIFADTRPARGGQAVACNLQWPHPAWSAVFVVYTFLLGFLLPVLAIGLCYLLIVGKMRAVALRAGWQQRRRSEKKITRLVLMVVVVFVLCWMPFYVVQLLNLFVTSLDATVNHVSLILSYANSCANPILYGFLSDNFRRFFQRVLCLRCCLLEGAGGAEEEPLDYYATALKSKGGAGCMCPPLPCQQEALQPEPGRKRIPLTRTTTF
# Protocol: as §4, §5, §6
# Assays were performed in triplicate at each concentration within the 1:5 dilution series: 250 μM, 50 μM, 10 μM, […], 0.4 μM, 0.08 μM, 0.016 μM, 0.0032 μM, etc. (for SST4 assay) and 125 μM, 10 μM, 2 μM, 1 μM, 0.5 μM, etc (for SST5 assay).
# as §7
# [7] = system: MV522 human NSCLC tumour xenograft; experiment: Nude mouse model of human MV522 non-small cell lung cancer tumours; assay type: in vivo, nude mice
# Protocol: Initial Maximum Tolerated Dose (MTD) studies were done in male nude mice to determine the appropriate intravenous dosing regimen for the MV522 human NSCLC tumour model. A range of doses between 0 and 50 mg/Kg for 28 days (qdx28) were tested. Mice were randomized into groups with 5 animals per group including vehicle control. Animals were weighed twice weekly starting on day one and observed daily for adverse reactions or toxicity due to the agent. MTD studies determined the selection of 20 mg/kg and 35 mg/kg for intravenous dosing once per day for 28 days in the MV522 human NSCLC tumour xenograft model.
# Male nude mice (nu/nu) between 5 and 6 weeks of age weighing approximately 20 g were implanted subcutaneously (s.c) by trocar with fragments of MV522 human tumour carcinomas harvested from s.c growing tumours in host mice. MV-522 is a metastatic human lung adenocarcinoma line. When tumours reached approximately 72 mg in size animals were pair matched into treatment and control groups with 10 mice in each group. Each mouse was tagged and followed individually throughout the experiment.
# “Compound 1” was administered i.v. in a saline vehicle from day one. Vehicle control group animals were administered saline i.v. There were nine treatment groups including the vehicle control group. […]
# At the end of the treatment period the mice were weighed and sacrificed. Each tumour was excised and weighed and a mean actual tumour weight (mg) per group was calculated along with the mean actual volume (mm^3). […] Mean tumour regression was determined using the formula [1−(mean actual tumour weightFINAL/mean tumour weightDAY 1)×100%].
structure (smiles),measurement,setting,value
COC[C@H]1O[C@H](OCCc2ccccc2)[C@H](NC(=O)CCCN)[C@@H](OCc2ccc3ccccc3c2)[C@@H]1O [Compound 1],Effects in the eight ActiveTox assays,[1],no statistical effects
same,Inhibition of cell proliferation,[2],no inhibitory effect
same,Inhibition of cell proliferation,[3],no inhibitory effect
same,Papp,[4],1.04 ×10⁻⁶ cm/s
same,IC50,"[5]; concentration required to displace 50% of the competitive radioligand, read-out: IC50 SSTR2",7.5 µM
same,selectivity SSTR2,[5]; normalized IC50: lowest IC50 for a compound = 1,23.2
same,Hillslope SSTR2,[5]; slope of binding curve,1.2
same,IC50,[6],> 12.5 µM
same,Tumour growth inhibition (TGI),[7]; group nine: 35 mg/kg compound 1 i.v. qdx28 and paclitaxel 16 mg/kg i.p. qdx5,75.1%
same,Tumour growth inhibition (TGI),[7]; group seven: 20 mg/kg compound 1 i.v. qdx28 and paclitaxel 16 mg/kg i.p. qdx5,56.9%
